Laboratory results taken from ChEMBL document CHEMBL1122352, “Synthesis and antitumor activity of 2-beta-D-ribofuranosylselenazole-4-carboxamide and related derivatives” (1983).

Columns and labels:
Assay type in all cases: functional
L1210 [1] = experiment: Evaluated for cytotoxicity against L1210 cells; conditions: Mus musculus, read-out: ID50 (the source's name)
Mus musculus [2] = experiment: Evaluated for increase in life span in mice inoculated with lewis lung carcinoma at a dose of 1.5 mg/kg (Experiment-2)
Mus musculus [3] = experiment: Evaluated for increase in life span in mice inoculated with lewis lung carcinoma at a dose of 100 mg/kg (Experiment-1)
Mus musculus [4] = experiment: Evaluated for increase in life span in mice inoculated with lewis lung carcinoma at a dose of 12 mg/kg (Experiment-1)
Mus musculus [5] = experiment: Evaluated for increase in life span in mice inoculated with lewis lung carcinoma at a dose of 12 mg/kg (Experiment-2)
Mus musculus [6] = experiment: Evaluated for increase in life span in mice inoculated with lewis lung carcinoma at a dose of 24 mg/kg (Experiment-2)
Mus musculus [7] = experiment: Evaluated for increase in life span in mice inoculated with lewis lung carcinoma at a dose of 25 mg/kg (Experiment-1)
Mus musculus [8] = experiment: Evaluated for increase in life span in mice inoculated with lewis lung carcinoma at a dose of 3 mg/kg (Experiment-2)
Mus musculus [9] = experiment: Evaluated for increase in life span in mice inoculated with lewis lung carcinoma at a dose of 50 mg/kg (Experiment-1)
Mus musculus [10] = experiment: Evaluated for increase in life span in mice inoculated with lewis lung carcinoma at a dose of 6 mg/kg (Experiment-2)
Mus musculus [11] = experiment: Evaluated for median life span in mice inoculated with lewis lung carcinoma at a dose of 1.5 mg/kg (Experiment-2)
Mus musculus [12] = experiment: Evaluated for median life span in mice inoculated with lewis lung carcinoma at a dose of 100 mg/kg (Experiment-1)
Mus musculus [13] = experiment: Evaluated for median life span in mice inoculated with lewis lung carcinoma at a dose of 12 mg/kg (Experiment-1)
Mus musculus [14] = experiment: Evaluated for median life span in mice inoculated with lewis lung carcinoma at a dose of 12 mg/kg (Experiment-2)
Mus musculus [15] = experiment: Evaluated for median life span in mice inoculated with lewis lung carcinoma at a dose of 200 mg/kg (Experiment-1)
Mus musculus [16] = experiment: Evaluated for median life span in mice inoculated with lewis lung carcinoma at a dose of 24 mg/kg (Experiment-2)
Mus musculus [17] = experiment: Evaluated for median life span in mice inoculated with lewis lung carcinoma at a dose of 25 mg/kg (Experiment-1)
Mus musculus [18] = experiment: Evaluated for median life span in mice inoculated with lewis lung carcinoma at a dose of 3 mg/kg (Experiment-2)
Mus musculus [19] = experiment: Evaluated for median life span in mice inoculated with lewis lung carcinoma at a dose of 50 mg/kg (Experiment-1)
Mus musculus [20] = experiment: Evaluated for median life span in mice inoculated with lewis lung carcinoma at a dose of 6 mg/kg (Experiment-2)
P388 = experiment: Evaluated for cytotoxicity against P-388 cells; conditions: Mus musculus, read-out: ID50 (the source's name)
L1210 [21] = experiment: Evaluated for cytotoxicity to L1210 cells; conditions: Mus musculus, read-out: ID50 (the source's name)
Mus musculus [22] = experiment: Evaluated for increase in life span in mice inoculated with lewis lung carcinoma at a dose of 13 mg/kg
Mus musculus [23] = experiment: Evaluated for median life span in mice inoculated with lewis lung carcinoma at a dose of 13 mg/kg
Mus musculus [24] = experiment: Evaluated for median life span in mice inoculated with lewis lung carcinoma at a dose of 20 mg/kg
Mus musculus [25] = experiment: Evaluated for median life span in mice inoculated with lewis lung carcinoma at a dose of 33 mg/kg
Mus musculus [26] = experiment: Evaluated for median life span in mice inoculated with lewis lung carcinoma at a dose of 50 mg/kg
Mus musculus [27] = experiment: Evaluated for median life span in mice inoculated with lewis lung carcinoma at a dose of 75 mg/kg
Mus musculus [28] = experiment: Evaluated for median life span in mice inoculated with lewis lung carcinoma at a dose of 9 mg/kg

With `NC(=O)c1c[se]c([C@@H]2O[C@H](CO)[C@@H](O)[C@H]2O)n1` as the compound, how does the IC50 (L1210 [1]) read?
Its IC50 is 400 nM.

And the ILS at 1.5 mg/kg (Mus musculus [2])?
The ILS at 1.5 mg/kg was 10%.

What about the ILS at 100 mg/kg (Mus musculus [3]) of the same compound?
Its ILS at 100 mg/kg is 20%.

What about the ILS at 12 mg/kg (Mus musculus [4]) of the same compound?
Its ILS at 12 mg/kg is 255%.

What about the ILS at 12 mg/kg (Mus musculus [5]) of the same compound?
The ILS at 12 mg/kg was 197%.

What about the ILS at 24 mg/kg (Mus musculus [6]) of the same compound?
The ILS at 24 mg/kg was 197%.

What about the ILS at 25 mg/kg (Mus musculus [7]) of the same compound?
The ILS at 25 mg/kg was 255%.

And the ILS at 3 mg/kg (Mus musculus [8])?
The ILS at 3 mg/kg was 53%.

And the ILS at 50 mg/kg (Mus musculus [9])?
The ILS at 50 mg/kg was 255%.

And the ILS at 6 mg/kg (Mus musculus [10])?
The ILS at 6 mg/kg was 197%.

What about the MLS (Mus musculus [11]) of the same compound?
The MLS was 22 days.

And the MLS (Mus musculus [12])?
Its MLS is 20.3 days.

What about the MLS (Mus musculus [13]) of the same compound?
Its MLS is 60 days.

What about the MLS (Mus musculus [14]) of the same compound?
Its MLS is 60 days.

And the MLS (Mus musculus [15])?
The MLS was 10.7 days.

And the MLS (Mus musculus [16])?
The MLS was 60 days.

What about the MLS (Mus musculus [17]) of the same compound?
Its MLS is 60 days.

What about the MLS (Mus musculus [18]) of the same compound?
The MLS was 31 days.

What about the MLS (Mus musculus [19]) of the same compound?
Its MLS is 60 days.

What about the MLS (Mus musculus [20]) of the same compound?
Its MLS is 60 days.

What about the IC50 (P388) of the same compound?
Its IC50 is 300 nM.

Which IC50 (L1210 [21]) does the source give for `NC(=O)c1c[se]c([C@@H]2O[C@H](COP(=O)(O)O)[C@@H](O)[C@H]2O)n1` here?
The IC50 was 390 nM.

And the ILS at 13 mg/kg (Mus musculus [22])?
Its ILS at 13 mg/kg is 215%.

What about the MLS (Mus musculus [23]) of the same compound?
Its MLS is 60 days.

What about the MLS (Mus musculus [24]) of the same compound?
The MLS was 12 days.

And the MLS (Mus musculus [25])?
The MLS was 12.5 days.

And the MLS (Mus musculus [26])?
Its MLS is 12.5 days.

And the MLS (Mus musculus [27])?
Its MLS is 15.5 days.

What about the MLS (Mus musculus [28]) of the same compound?
Its MLS is 12.5 days.

With `NC(=O)c1csc([C@@H]2O[C@H](CO)[C@@H](O)[C@H]2O)n1` [TIAZOFURIN] as the compound, how does the IC50 (L1210 [1]) read?
Its IC50 is 1950 nM.
